# Experimental data reported in ChEMBL document CHEMBL1129353, “Synthesis and biological evaluation of N alpha-(4-amino-4-deoxy-10-methylpteroyl)-DL-4,4-difluoroornithine” (J Med Chem, 1996).
# Key:
# [1] = Dissociation constant was evaluated; format: physicochemical
# [2] = target: T1, Folylpolyglutamate synthase, mitochondrial (Homo sapiens, UniProt Q05932); test: Inhibitory concentration against human Folyl-polyglutamate synthase isolated from CCRF-CEM human leukemia cells.; format: cell-free
# T1 sequence (Q05932 whole entry): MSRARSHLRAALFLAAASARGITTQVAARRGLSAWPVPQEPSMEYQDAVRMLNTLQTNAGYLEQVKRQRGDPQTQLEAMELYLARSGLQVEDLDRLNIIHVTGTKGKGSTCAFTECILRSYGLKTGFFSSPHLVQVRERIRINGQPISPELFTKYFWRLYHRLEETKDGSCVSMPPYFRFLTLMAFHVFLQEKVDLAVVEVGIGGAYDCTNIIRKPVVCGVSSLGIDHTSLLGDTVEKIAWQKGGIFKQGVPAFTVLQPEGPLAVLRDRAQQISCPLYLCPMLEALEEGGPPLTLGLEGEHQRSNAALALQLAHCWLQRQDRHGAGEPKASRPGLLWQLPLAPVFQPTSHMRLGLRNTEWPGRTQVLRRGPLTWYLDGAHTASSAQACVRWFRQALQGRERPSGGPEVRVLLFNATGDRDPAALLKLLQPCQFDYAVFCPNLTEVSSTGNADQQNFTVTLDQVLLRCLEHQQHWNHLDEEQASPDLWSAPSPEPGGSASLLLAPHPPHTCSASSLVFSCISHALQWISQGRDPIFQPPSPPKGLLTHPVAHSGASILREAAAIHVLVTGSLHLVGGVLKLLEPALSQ
# Dihydrofolate reductase [3] = target: T2, Dihydrofolate reductase (Homo sapiens, UniProt P00374); test: Inhibitory concentration against dihydrofolate reductase enzyme (DHFR) enzyme isolated from CCRF-CEM human leukemia cells. value mentioned is from literature
# T2 sequence (P00374 whole entry): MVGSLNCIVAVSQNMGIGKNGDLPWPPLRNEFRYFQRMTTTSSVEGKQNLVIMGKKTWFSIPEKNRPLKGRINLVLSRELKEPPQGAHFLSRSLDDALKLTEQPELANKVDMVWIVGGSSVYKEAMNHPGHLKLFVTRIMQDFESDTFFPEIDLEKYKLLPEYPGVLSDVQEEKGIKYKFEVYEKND
# Dihydrofolate reductase [4] = target: T2, Dihydrofolate reductase; test: Inhibitory concentration against dihydrofolate reductase enzyme (DHFR) enzyme isolated from CCRF-CEM human leukemia cells.; format: cell-free
# CCRF-CEM [5] = test: cells; conditions: Homo sapiens, read-out: ED50
# CCRF-CEM [6] = test: Inhibitory activity against growth of CCRF-CEM human leukemia cells. value mentioned is from literature; format: functional; conditions: read-out: ED50
# [7] = target: T1, Folylpolyglutamate synthase, mitochondrial; test: Inhibitory activity against mammalian Folyl-polyglutamate synthase
Ki [7] [nM],Structure (SMILES),pKa [1],IC50 [2] [nM],IC50 (Dihydrofolate reductase [3]) [nM],IC50 (Dihydrofolate reductase [4]) [nM],EC50 (CCRF-CEM [5]) [nM],EC50 (CCRF-CEM [6]) [nM]
,NCC(F)(F)CC(N)C(=O)O (stereo unspecified),6.9,,,,,
,CN(Cc1cnc2nc(N)nc(N)c2n1)c1ccc(C(=O)NC(CCCN)C(=O)O)cc1 (stereo unspecified),10.8,33000,1,2.5,740,740
,CN(Cc1cnc2nc(N)nc(N)c2n1)c1ccc(C(=O)NC(CC(F)(F)CN)C(=O)O)cc1 (stereo unspecified),,> 300000,,1.3,93,
200,NCCCC(NC(=O)c1ccc(NCC2CNc3nc(N)[nH]c(=O)c3N2)cc1)C(=O)O (stereo unspecified),,,,,,
